From patent publication US20130324469A1, “FIBRINOGEN AND KIDNEY DAMAGE” (THE BRIGHAM AND WOMEN'S HOSPITAL, INC., priority 2010, published 2013)
“Also recorded” adds a separate entry of the source.

Assays:
rats = assay: Galactosamine-induced liver toxicity in rats (specificity of urinary fibrinogen); format: in vivo, rat; settings: 1.1 g/kg ip, 24 h
[1] = system: renal I/R injury in C57BL/6 mice; assay: 27 min bilateral renal ischemia/reperfusion (I/R) injury in mice, peptide given iv after reperfusion; format: in vivo, mouse
Protocol: FIG. 3 is a set of four bar graphs showing that Bβ15-42 peptide protects mice from renal ischemia/reperfusion (I/R) injury. Male C57Bl6 mice were subjected to 27 minutes bilateral renal ischemia/reperfusion injury or sham surgery and 3.6 mg/kg of Bβ15-42 peptide or random peptide was administered intravenously 1 min following reperfusion. […] Serum creatinine (SCr), blood urea nitrogen (BUN) as indicators of renal dysfunction and urinary levels of fibrinogen (Fg) and kidney injury molecule-1 (Kim-1) as indicators of kidney injury were measured at 24 and 48 h in all the groups. (n=5/group of sham, n=10/group at 24 hours and n=5/group at 48 hours).* represents p<0.05 as determined by one way ANOVA in comparison with sham mice.
Blood and urine analysis was performed as follows. At sacrifice, blood was collected from dorsal aorta in heparinized tubes. Serum creatinine (SCr) concentrations were measured using a Beckman Creatinine Analyzer II. Blood urea nitrogen (BUN) was measured spectrophotometrically at 340 nm using a commercially available kit (Thermo Scientific, Rockford, Ill.) as described before (Krishnamoorthy et al., Toxicol Sci. 2010; 118(1):298-306).
Urines were collected by placing animals in individual metabolic cages and one ml of RNAlater (Ambion, Austin, Tex.) was added to the tubes to preserve RNA. Urinary Kidney Injury Molecule-1 (Kim-1 in rats and KIM-1 in humans) was measured using previously established luminex-based assays (Vaidya et al., Nat Biotechnol. 2010; 28(5):478-485; Vaidya et al., Clinical and Translational Science. 2008; 1(3):200-208). Urinary Kim-1 in mice was measured using a luminex-based assay. Urinary N-acetyl-β-D-glucosaminidase (NAG) was measured spectrophotometrically according to the manufacturers' protocols (Roche diagnostics, Basel Switzerland). Urinary creatinine concentration was used to normalize biomarker measurements in order to account for the influence of urinary dilution on biomarker concentrations. Fibrinogen in mouse, rat and human urines was measured using a commercially available species-specific luminex assay based kit from Millipore (Billerica, Mass.).
Immunostaining, to evaluate the cellular expression profile of Fg whole protein and Fgα, Fgβ and Fgγ chains was performed as follows. Kidney tissues were perfused with cold PBS before harvesting and then fixed in formalin for 16 h and embedded in paraffin. The sections incubated overnight at 4° C. in rabbit monoclonal anti-Fibrinogen alpha (Epitomics, Burlingame, Calif.), rabbit polyclonal anti-Fibrinogen beta (ProteinTech Group, Chicago, Ill.), rabbit polyclonal anti-Fibrinogen gamma (ProteinTech Group, Chicago, Ill.), anti-rat fibrinogen (Nordic Immunological Laboratories, Tilburg, The Netherlands), anti-human fibrinogen (Sigma-Aldrich, St. Louis, Mo.) and rabbit monoclonal anti-Ki67 (Vector Laboratories, Burlingame, Calif.). The primary antibody was detected using goat anti-rabbit Cy3 labeled and donkey anti goat Cy3 labeled secondary antibodies (Jackson ImmunoResearch Laboratories, West Grove, Pa.). DAPI (Sigma Aldrich, St. Louis, Mo.) was used for nuclear staining. The tissue sections were mounted using ProLong Gold Antifade Reagent (Invitrogen, Carlsbad, Calif.). The images were captured at 100× for rats, 60× for mice and humans using NIKON Eclipse 90i fluorescence microscope.
Endotoxin free Bβ15-42 ([…]) and random peptide ([…]) were custom synthesized (Invitrogen, Carlsbad, Calif.) with 95% modification and N-terminal amine group addition and free acid modification. Bβ15-42 or random peptide (3.6 mg/kg) was administered intravenously (iv) 1 min after reperfusion following 27 min bilateral renal I/R injury in C57BL/6 mice (n=5 to 10/group). Forty male C57Bl6 wild type mice were anesthetized using pentobarbital sodium (30 mg/kg, ip) and subjected to 27 min of bilateral renal I/R surgery by the retroperitoneal approach. Sham surgery was performed with exposure of both kidneys but without induction of ischemia. […]

LLC-PK1 cells = assay: BrdU uptake (cell proliferation) of LLC-PK1 cells after mineral-oil hypoxia; format: cell-based, pig; settings: 6 μM; 48 h post hypoxia; serum free; vs random peptide
Protocol: FIG. 4E is a bar graph showing cell proliferation measured by bromodeoxyuridine (5-bromo-2-deoxyuridine (BrdU) uptake, by LLC-PK1 cells, 48 h post onset of hypoxia at 450 nm wavelength. Absorbance obtained from untreated cells was taken as 100% (n=6 wells/group). * represents p<0.05 as determined by Student's t-test between the two groups.
In vitro experiments using proximal tubular epithelial cells (LLC-PK1) were also performed. The renal tubular epithelial cell line, LLC-PK1, established from pig renal cortex was obtained from ATCC (Manassas, Va.) and maintained in DMEM containing 10% FBS. Two thousand five hundred LLC-PK1 cells were plated in 96 well plate for 24 h in DMEM 10% fetal bovine serum (FBS) at which time they formed a 50% confluent monolayer in the well. They were pretreated with 6 μM of Bβ15-42 or random peptide for 6 h and were immersed in 100 μl of mineral oil on top of DMEM medium without any serum for 6 h. […] Bromodeoxyuridine (5-bromo-2-deoxyuridine (BrdU) was measured as an index of cell proliferation by incubating cells with BrdU for 2 h before harvesting and the absorbance was quantified using a spectrophotometer at 450 nm wavelength as per manufacturer's instructions (Millipore, Bellerica, Mass.). Absorbance obtained from untreated cells was taken as 100% (n=6 wells/group) and the experiment was repeated twice.

VE-Cadherin = molecular target: T1, VE-Cadherin (Homo sapiens, UniProt P33151); settings: disrupts interaction of Fg with VE-Cadherin on endothelial cells; cited from earlier work
T1 sequence (P33151 48-784): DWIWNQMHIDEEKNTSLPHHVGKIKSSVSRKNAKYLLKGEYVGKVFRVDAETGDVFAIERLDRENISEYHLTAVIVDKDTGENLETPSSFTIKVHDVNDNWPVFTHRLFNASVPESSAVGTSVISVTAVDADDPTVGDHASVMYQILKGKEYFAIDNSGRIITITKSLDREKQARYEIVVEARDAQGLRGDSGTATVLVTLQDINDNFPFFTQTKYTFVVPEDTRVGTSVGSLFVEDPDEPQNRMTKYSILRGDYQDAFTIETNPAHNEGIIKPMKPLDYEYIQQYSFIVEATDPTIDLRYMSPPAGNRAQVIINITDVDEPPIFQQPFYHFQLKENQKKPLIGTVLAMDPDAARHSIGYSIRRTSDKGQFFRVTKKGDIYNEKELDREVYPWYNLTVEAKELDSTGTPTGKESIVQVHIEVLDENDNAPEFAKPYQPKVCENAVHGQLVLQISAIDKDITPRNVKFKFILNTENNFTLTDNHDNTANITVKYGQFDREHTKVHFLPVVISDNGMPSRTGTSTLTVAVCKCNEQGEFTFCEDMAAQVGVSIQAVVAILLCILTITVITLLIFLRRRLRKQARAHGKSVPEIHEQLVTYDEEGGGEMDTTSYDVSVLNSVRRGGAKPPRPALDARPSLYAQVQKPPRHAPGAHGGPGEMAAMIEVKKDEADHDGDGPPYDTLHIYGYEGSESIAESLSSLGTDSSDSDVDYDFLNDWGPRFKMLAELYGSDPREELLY

[2] = system: myocardial infarction in animal models; settings: suprapharmacological doses; cited from earlier work
[3] = system: acute lung injury in animal models; settings: suprapharmacological doses; cited from earlier work
[4] = system: patients with acute myocardial infarction; settings: phase IIa; patients whose endothelial barrier integrity had not been compromised; cited from earlier work
[5] = mean ± SEM, listed as galactosamine
[6] = 3.6 mg/kg iv, 24 and 48 h, vs random peptide
[7] = 3.6 mg/kg iv, 24 h after I/R, vs random peptide

**Q.** With N[C@H]1C(O)O[C@H](CO)[C@H](O)[C@@H]1O (stereo partly drawn) [Galactosamine, galactosamine] as the compound, how does the histopathological score kidney (rats) read?
**A.** 0

**Q.** What about the histopathological score liver (rats) of the same compound?
**A.** 2

**Q.** What about the histopathological score kidney (rats; listed as galactosamine) of the same compound?
**A.** no signs of kidney structural or functional damage

**Q.** What about the histopathological score liver (rats; listed as galactosamine) of the same compound?
**A.** extensive hepatocellular damage

**Q.** What about the ALT (rats; mean ± SEM) of the same compound?
**A.** 422.8 ± 121.9 U/l

**Q.** What about the AST (rats; mean ± SEM) of the same compound?
**A.** 246.0 ± 57.5 U/l

**Q.** And the BUN (rats; mean ± SEM)?
**A.** 19.1 ± 1.1 mg/dL

**Q.** And the Scr (rats; mean ± SEM)?
**A.** 0.5 ± 0.0 mg/dL

**Q.** What about the “kidney Fgα gene expression (FC relative to control)” value (rats; mean ± SEM) of the same compound?
**A.** 1.2 ± 0.1 FC

**Q.** What about the “kidney Fgβ gene expression (FC relative to control)” value (rats; mean ± SEM) of the same compound?
**A.** 1.0 ± 0.0 FC

**Q.** And the “kidney Fgγ gene expression (FC relative to control)” value (rats; mean ± SEM)?
**A.** 0.9 ± 0.1 FC

**Q.** And the “kidney Kim-1 gene expression (FC relative to control)” value (rats; mean ± SEM)?
**A.** 1.0 ± 0.1 FC

**Q.** What about the “urinary excretion of Fg” value (rats; mean ± SEM) of the same compound?
**A.** 26.0 ± 26.0 ng/mg Cr

**Q.** And the ALT (rats; [5])?
**A.** significant increase

**Q.** And the AST (rats; [5])?
**A.** significant increase

**Q.** And the “kidney Fgα gene expression (FC relative to control)” value (rats; [5])?
**A.** did not lead to any increase

**Q.** And the “kidney Fgβ gene expression (FC relative to control)” value (rats; [5])?
**A.** did not lead to any increase

**Q.** What about the “kidney Fgγ gene expression (FC relative to control)” value (rats; [5]) of the same compound?
**A.** did not lead to any increase

**Q.** And the “urinary excretion of Fg” value (rats; [5])?
**A.** did not lead to any increase

**Q.** What does the source list for “GHRPLDKKREEAPSLRPAPPPISGGGYR (synthetically generated peptides) [Bβ15-42, naturally occurring 28 amino acid long product cleaved from fibrin fragments; Fgβ chain derived peptide, custom synthesized, endotoxin free]”?
**A.** infarct size and vascular congestion ([1]; 3.6 mg/kg iv 1 min after reperfusion, vs random peptide): significant reduction; also recorded: significantly smaller; leukocyte infiltration (myeloperoxidase staining) [1, 6]: similar; mRNA levels of inflammatory cytokines (IL-1β, IL-6, IL-10, TNFα, ICAM) and macrophage marker (CD68) in kidney [1, 6]: no difference; proximal tubular damage in the outer stripe of outer medulla (H & E histopathology) [1, 7]: significant decrease; reduction in kidney dysfunction measured by blood urea nitrogen (BUN) [1, 7]: Approximately 50%; reduction in kidney dysfunction measured by serum creatinine (SCr) [1, 7]: Approximately 50%; reduction in kidney proximal tubular injury measured by urinary Fg [1, 7]: Approximately 50%; reduction in kidney proximal tubular injury measured by urinary kidney injury molecule-1 [1, 7]: Approximately 50%; number of TUNEL positive apoptotic cells in the renal medulla ([1]; 24 h, vs random peptide): similar; apoptosis (TUNEL) in the renal medulla ([1]; 48 h, p<0.05 vs random peptide): significant decrease; proliferative (Ki67 positive) cells in the renal medulla ([1]; 48 h, vs random peptide): significant number of cells appeared to be in a proliferative state; acute tubular injury ([1]; mice, bilateral renal I/R injury): substantially reduced; renal epithelial cell proliferation (BrdU uptake) (LLC-PK1 cells): stimulating renal epithelial cell proliferation; interactions with VE-Cadherin (VE-Cadherin): low affinity; protection from myocardial infarction [2]: protect; protection from acute lung injury [3]: protect; clinical effect in acute myocardial infarction [4]: successful protective effects
